Earlier results as cited in patent US8324185B2, “Composition for the treatment of obesity and hyperlipidemia” (Nucitec, S.A. DF C.V., priority 2004, dated 2012).

Experiments:
[1] = dietary fat
[2] = target: T1, pancreatic lipase (Homo sapiens, UniProt P16233); conditions: in vitro
T1 sequence (P16233 17-465): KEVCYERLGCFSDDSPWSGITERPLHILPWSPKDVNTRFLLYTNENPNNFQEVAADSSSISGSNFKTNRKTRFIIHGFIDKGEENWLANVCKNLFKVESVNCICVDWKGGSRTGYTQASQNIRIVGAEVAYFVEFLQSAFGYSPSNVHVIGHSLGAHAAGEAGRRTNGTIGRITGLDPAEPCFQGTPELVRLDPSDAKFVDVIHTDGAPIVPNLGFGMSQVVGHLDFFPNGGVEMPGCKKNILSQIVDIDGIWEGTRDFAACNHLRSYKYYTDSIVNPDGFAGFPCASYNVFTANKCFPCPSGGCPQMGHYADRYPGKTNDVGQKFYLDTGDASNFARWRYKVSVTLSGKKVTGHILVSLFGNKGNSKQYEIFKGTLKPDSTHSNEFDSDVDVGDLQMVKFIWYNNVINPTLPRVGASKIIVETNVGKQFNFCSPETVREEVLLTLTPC

pK value of the amino group	Structure (SMILES)	reduction in fat absorption from the diet [1] [%]	inhibition of pancreatic lipase activity [2]
~9	NCCCC[C@H](N)C(=O)O [lisine]	–	–
–	CCCCCCCCCCC[C@@H](C[C@@H]1OC(=O)[C@H]1CCCCCC)OC(=O)[C@H](CC(C)C)NC=O [orlistat]	30	fully inhibits
